Literature values as cited in US7799540B2, “Method of producing lycopene through the fermentation of selected strains of Blackeslea trispora, formulations and uses of the lycopene thus obtained” (Vitatene, S.A., priority 2001, dated 2010).

Settings: rats; Matos H.R. et al. (2001)

## CC(C)=CCC/C(C)=C/C=C/C(C)=C/C=C/C(C)=C/C=C/C=C(C)/C=C/C=C(C)/C=C/C=C(\C)CCC=C(C)C [lycopene, Lycopene]
  effect on harmful effect of ferric nitriloacetate on DNA: inhibits the harmful effect of ferric nitriloacetate on DNA
  effect on necrosis of the liver: prevents necrosis of the liver
